Experimental data reported in patent US20120053123A1, “NATRIURETIC POLYPEPTIDES HAVING MUTATIONS WITHIN THEIR DISULFIDE RINGS” (priority 2009, published 2012).

How the values were obtained:
[1] = tested on: vascular smooth muscle cells; assay: Proliferation of vascular smooth muscle cells in culture (BrdU); type: cell-based; details: 10^-5 M to 10^-8 M; for ABC-NP and ABC-NP1 all concentrations about the same effect, FIG. 21
Source text: FIG. 21 is a graph plotting levels of proliferation of vascular smooth muscle cells after treatment with 10^−5 M, 10^−6 M, 10^−7 M, or 10^−8 M ANP, BNP, CNP, ABC-NP, or ABC-NP1, measured by assessing bromodeoxyuridine (BrdU) levels.

[2] = tested on: human cardiac fibroblasts (HCF); assay: cGMP generation in cultured human cardiac fibroblasts (HCF); type: cell-based; details: FIG. 8, p<0.05
Source text: (§1) Variant NPs having conservative and/or non-conservative substitutions (e.g., with respect to any of SEQ ID NOS:1 to 51), as well as fragments of any of SEQ ID NOS:1 to 51, fragments of variants of any of SEQ ID NOS:1 to 51, and polypeptides comprising any of SEQ ID NOS:1 to 51, variants or fragments of any of SEQ ID NOS:1 to 51, or fragments of variants of any of SEQ ID NOS:1 to 51, can be screened for biological activity using any of a number of assays, including those described herein. For example, the activity of a NP as described herein can be evaluated in vitro by testing its effect on cGMP production in cultured cells (e.g., cultured cardiac fibroblasts, aortic endothelial cells, or glomerular cells, as described in the Example herein). Cells can be exposed to a NP (e.g., 10^−9 to 10^−4 M NP), and samples can be assayed to evaluate the NP effects on cGMP generation. cGMP generation can be detected and measured using, for example, a competitive RIA cGMP kit (Perkin-Elmer, Boston, Mass.).
(§2) Cardiorenal and humoral actions of intravenous bolus administration of ABC-NP1 (n=5) and ABC-NP (n=5) at 25 microgram/Kg were evaluated in two separate groups of normal anesthetized dogs. The cGMP response of both peptides also was assessed in HAEC, HCF, and isolated canine glomeruli.

[3] = tested on: dogs with rapid ventricular pacing-induced overt heart failure with cardiorenal dysfunction; assay: Cardiorenal and humoral actions of intravenous infusions in dogs with pacing-induced overt heart failure; type: in vivo, dog; details: for RAP: all doses (2, 10 and 100 pmol/kg/minute), FIG. 13; for MAP: FIG. 12; for PCWP: FIG. 14; for urinary sodium excretion (UNaV) / urine flow (UV): increasing doses 2, 10, 100 pmol/kg/minute; for glomerular filtration rate (GFR): FIG. 17; for renal blood flow: FIG. 18
Method: The cardiorenal and humoral actions of intravenous infusions of ABC-NP and ABC-NP1 at 2, 10, and 100 pmol/kg/minute were examined in seven dogs with rapid ventricular pacing-induced overt heart failure with cardiorenal dysfunction (240 bpm for 10 days). As shown in the study protocol depicted in FIG. 11, baseline values for MAP, RAP, PCWP, UNaV, UV, GFR, renal blood flow, urinary cGMP excretion, plasma and cGMP were measured, and animals were then infused with 2 pmol/kg/minute ABC-NP or ABC-NP1 for a lead in period of 15 minutes followed by 30 minutes, then infusion with 10 pmol/kg/minute ABC-NP or ABC-NP1 for a lead in period of 15 minutes followed by 30 minutes, and finally infusion with 100 pmol/kg/minute ABC-NP or ABC-NP1 for a lead in period of 15 minutes followed by 30 minutes, and washout for 30 minutes. Pressure measurements were taken at the end of each NP infusion period, and blood and urine samples also were collected for analysis.

[4] = tested on: isolated canine glomeruli; assay: cGMP generation in isolated canine glomeruli; type: cell-based; details: comparison between the two peptides, FIG. 10
Source text: A NP as provided herein can function through one or more of the guanylyl cyclase receptors through which the native NPs function. For example, in some embodiments, a NP as provided herein can bind to and function through the NPR-A receptor through which ANP and BNP function. In some cases, a NP as provided herein can function through the NPR-B receptor through which CNP functions. Further, in some cases, a NP as provided herein can bind to and function through more than one guanylyl cyclase receptor, including NPR-A and NPR-B, for example. Methods for evaluating which receptor is involved in function of a particular NP are known in the art. For example, glomeruli, which contain both NPR-A and NPR-B, can be isolated (e.g., from a laboratory animal such as a dog) and incubated with a NP (e.g., a native, chimeric, or mutated NP), and cGMP levels can be measured. Glomeruli can be pretreated with antagonists of NPR-A or NPR-B to determine whether cGMP production stimulated by a NP through one or the other receptor can be attenuated.
as §2

[5] = tested on: human aortic endothelial cells (HAEC); assay: cGMP generation in cultured human aortic endothelial cells (HAEC); type: cell-based; details: FIG. 9, p<0.05
Source text: as §1, §2

normal anesthetized dogs = assay: Cardiorenal and humoral actions of intravenous bolus in normal anesthetized dogs; type: in vivo, dog; details: i.v. bolus 25 microgram/Kg; for reduction in right atrial pressure (RAP) / reduction in pulmonary capillary wedge pressure (PCWP): ABC-NP1 compared with ABC-NP; for reduction in right atrial pressure (RAP): FIG. 6; for reduction in pulmonary capillary wedge pressure (PCWP): FIG. 7; for urine flow (UV), diuresis: n=5, FIG. 3; for urinary sodium excretion (UNaV), natriuresis: n=5, FIG. 4; for mean arterial blood pressure (MAP): n=5, FIG. 5
Method: as §2

[6] = previously shown, cited from earlier work
[7] = after administration to a mammal; cited from earlier work
[8] = HF dogs, highest dose (100 pmol/kg/minute), FIG. 19
[9] = HF dogs, highest dose (100 pmol/kg/minute), FIG. 20
[10] = HF dogs, i.v. infusion, highest dose (100 pmol/kg/minute)
[11] = HF dogs, two highest doses (10 and 100 pmol/kg/minute)

| Compound | proliferation of vascular smooth muscle cells (BrdU levels) [1] | cGMP generation [2] | urinary cGMP excretion [3, 8] | plasma cGMP [3, 9] | RAP ([3]; HF dogs, i.v. infusion) | urinary sodium excretion (UNaV) ([3]; HF dogs, FIG. 15) | urine flow (UV) ([3]; HF dogs, FIG. 16) | cGMP generation [4] | cGMP generation [5] | reduction in right atrial pressure (RAP) (normal anesthetized dogs) | reduction in pulmonary capillary wedge pressure (PCWP) (normal anesthetized dogs) | urine flow (UV), diuresis (normal anesthetized dogs) | urinary sodium excretion (UNaV), natriuresis (normal anesthetized dogs) | mean arterial blood pressure (MAP) (normal anesthetized dogs) | further results |
| --- | --- | --- | --- | --- | --- | --- | --- | --- | --- | --- | --- | --- | --- | --- | --- |
| B-type natriuretic peptide [BNP] | decreased as the concentration decreased |  |  |  |  |  |  |  |  |  |  |  |  |  |  |
| RMDRIGLSKGCFGLKLDRIGSMSGLGCKVLRRH [ABC-NP1] | reduced proliferation | significantly higher | significantly increased | significantly increased | significantly reduced | increasing effects | increasing effects | similar | significantly higher | significantly greater | significantly greater | resulted in diuresis | natriuresis | significant decrease | effect on UNaV relative to ABC-NP ([3]; HF dogs, ABC-NP1 vs ABC-NP, FIG. 15): 5- to 6.5 fold; effect on UV relative to ABC-NP ([3]; HF dogs, ABC-NP1 vs ABC-NP, FIG. 16): 1.5- to 2 fold; effect on urinary cGMP excretion relative to ABC-NP ([3]; HF dogs, highest dose, ABC-NP1 vs ABC-NP, FIG. 19): about a two-fold greater effect; effect on plasma cGMP relative to ABC-NP ([3]; HF dogs, highest dose, ABC-NP1 vs ABC-NP, FIG. 20): about a two-fold greater effect; MAP [3, 10]: significantly reduced; PCWP [3, 10]: significantly reduced; glomerular filtration rate (GFR) [3, 11]: significant increases; renal blood flow [3, 11]: significant increases; renal excretory actions ([6]; result of N- and C-terminal alterations): potent renal excretory actions; cardiac actions ([6]; similar to CNP): cardiac unloading actions; hypotensive effects ([6]; similar to CNP): mild hypotensive effects |
| C-type natriuretic peptide [CNP] | decreased as the concentration decreased |  |  |  |  |  |  |  |  |  |  |  |  |  | half-life [7]: about a minute and a half |
| RMDRIGLSKGCFGLKLDRIREASGLGCKVLRRH [ABC-NP, ANP residues 11-15, mutated CNP in which GSM15-17 were changed to REA, and six C-terminal amino acids of BNP] | reduced proliferation | minimal | significantly increased | significantly increased | increased | increasing effects | increasing effects | similar | minimal | reduction | reduction | resulted in diuresis | natriuresis | no change | glomerular filtration rate (GFR) ([3]; HF dogs, 2, 10, 100 pmol/kg/minute, significant increase only at highest dose): significance was not achieved with ABC-NP until the highest dose was used; renal blood flow ([3]; HF dogs, 2, 10 and 100 pmol/kg/minute): no effect; MAP ([3]; HF dogs, i.v. infusion 2, 10 and 100 pmol/kg/minute): no effect; PCWP ([3]; HF dogs, i.v. infusion, higher doses (10 and 100 pmol/kg/minute)): did not affect; PCWP ([3]; HF dogs, i.v. infusion, lowest dose (2 pmol/kg/minute), vs baseline): reduced PCWP as compared to baseline |
| CC[C@H](C)[C@@H]1NC(=O)[C@H](CCCNC(=N)N)NC(=O)[C@H](CC(=O)O)NC(=O)[C@H](CCSC)NC(=O)[C@H](CCCNC(=N)N)NC(=O)CNC(=O)CNC(=O)[C@H](Cc2ccccc2)NC(=O)[C@@H](NC(=O)[C@H](CO)NC(=O)[C@H](CO)NC(=O)[C@H](CCCNC(=N)N)NC(=O)[C@H](CCCNC(=N)N)NC(=O)[C@H](CC(C)C)NC(=O)[C@@H](N)CO)CSSC[C@@H](C(=O)N[C@@H](CC(N)=O)C(=O)N[C@@H](CO)C(=O)N[C@@H](Cc2ccccc2)C(=O)N[C@@H](CCCNC(=N)N)C(=O)N[C@@H](Cc2ccc(O)cc2)C(=O)O)NC(=O)CNC(=O)[C@H](CC(C)C)NC(=O)CNC(=O)[C@H](CO)NC(=O)[C@H](CCC(N)=O)NC(=O)[C@H](C)NC(=O)CNC1=O [ANP, atrial natriuretic peptide] | decreased as the concentration decreased |  |  |  |  |  |  |  |  |  |  |  |  |  |  |
